Legend:
[1] = test system: MRSA; test: MIC determination, broth micro dilution; type: cell-based; settings: MRSA USA300; for MIC: Staphylococcus aureus, read-out: MIC of antibiotic alone / without 2,6-DAC
Description: (§1) MIC values were determined using a broth micro dilution method. Bacteria cells were grown overnight at 37° C. in MHB to a mid-log phase (OD600 between 0.4-0.5 for each organism) and diluted in MHB to 10^5 CFU/mL. […] 50 μL of the 1-5×10^5 CFU/mL bacterial cultures (final concentration) was aliquoted into 96-well microtiter plates and mixed with 50 μL of two-fold dilutions of the polymer or antibiotics and incubated for 16-18 h at 37° C. with shaking at 200 rpm.
(§2) 2,6-DAC was screened as a potentiating agent for synergistic combinations with antibiotics against both A. baumannii AB-1 and MRSA USA300. Before the synergy tests, the MIC values of antibiotics were tested against MDR A. baumannii AB-1 and MRSA USA300 by following the MIC determination protocol in Example 4. Then, the synergy of 2,6-DAC with antibiotics was determined.

[2] = test system: A. baumannii; test: MIC determination, broth micro dilution; type: cell-based, Acinetobacter baumannii; settings: A. baumannii AB-1, antibiotic alone; for MIC: Acinetobacter baumannii, read-out: MIC of antibiotic without 2,6-DAC
Description: as §1, §2

[3] = test system: A. baumannii AB-1; test: Time killing assay; type: cell-based, Acinetobacter baumannii; settings: for Killing of bacteria by single agent (in words): sub-inhibitory concentration, alone, 24 h
Description: The plates were sealed and incubated at 37° C. with shaking at 200 rpm.
At 0, 0.5, 1, 2, 3, 5, and 24 h post-inoculation, each well was thoroughly mixed with a multi-channel pipette and 20 μL of sample was removed, serially diluted in sterile PBS, plated on LB agar plates, and incubated at 37° C. for 12 h. Colonies were counted to determine the CFU/mL at each time point.
(§3) Synergy was measured by time killing assay and checkerboard assay. Time killing assay was performed by following the protocol in Example 4. Checkerboard susceptibility assays to measure combinations of antimicrobials were performed in MHB at 37° C. as previously described (K. R. V. Thappeta et al., ACS Infect. Dis. 2020, 6, 1228-1237; and Z. Si et al., Angew. Chem. Int. Ed. 2020, 59, 6819-6826). The fractional inhibitory concentration (FIC) indices were calculated according to the following formula: […]

[4] = test system: A. baumannii AB-1; test: Checkerboard synergy assay of 2,6-DAC with antibiotics; type: cell-based, Acinetobacter baumannii; settings: for Synergy with 2,6-DAC (in words) / MIC, antibiotic in combination: A. baumannii AB-1; for MIC, antibiotic in combination: antibiotic concentration in combination with 2,6-DAC (8 μg/mL); for MIC of antibiotic +16 μg/mL 2,6-DAC / MIC of antibiotic +32 μg/mL 2,6-DAC: A. baumannii AB-1 (MDR)
Description: as §2, §3

[5] = test system: MRSA USA300; test: as above; type: cell-based; settings: for MIC, antibiotic in combination: antibiotic concentration in combination with 2,6-DAC
Description: as §2, §3

[6] = test system: MDR A. baumannii (AB-1); test: Intraperitoneal infection model in BALB/c mice; type: in vivo, Acinetobacter baumannii
Description: Bacterial cultures of MDR A. baumannii (AB-1) were prepared and used to infect 8-week-old female BALB/c mice. 10^6 CFU/mL of AB-1 (300 μL) was injected into the intraperitoneal cavity to introduce the infection. After 2 h of infection, specific dosage of antibiotic (novobiocin or rifampicin, 10 mg/kg), 2,6-DAC (25 mg/kg) or the combination of antibiotic (novobiocin or rifampicin, 10 mg/kg) and 2,6-DAC (25 mg/kg) were injected into the intraperitoneal cavity. PBS was used as a control. Mice euthanasian at the indicated time points (18 h) was achieved by CO2 asphyxiation followed by cervical dislocation. The intraperitoneal fluid, kidney, spleen and liver were recovered, and counted for bacteria concentration. For histopathological analysis, the kidney, spleen and liver were fixed in 10% neutral buffered formalin and embedded in paraffin. The paraffin-embedded sections were stained with H&E. The animal studies were carried out in accordance to protocol (A20029) approved by the NTU Institutional Animal Care and Use Committee (NTU-IACUC).

Molecule | MIC [1] | MIC [2] | Synergy with 2,6-DAC (in words) [5] | MIC of antibiotic +16 μg/mL 2,6-DAC [4] | MIC of antibiotic +32 μg/mL 2,6-DAC [4] | further results
NCC[C@H](O)C(=O)N[C@@H]1C[C@H](N)[C@@H](O[C@H]2O[C@H](CN)[C@@H](O)[C@H](O)[C@H]2O)[C@H](O)[C@H]1O[C@H]1O[C@H](CO)[C@@H](O)[C@H](N)[C@H]1O [Amikacin] | 1.56 µg/mL | > 128 µg/mL | no synergy |  |  | MIC of antibiotic without 2,6-DAC [2]: >128 µg/mL; Bactericidal efficacy, combination with 2,6-DAC ([3]; 2,6-DAC 0.5×MIC + amikacin 0.002×MIC): 4 log10; Killing of bacteria by single agent (in words) [3]: no killing of bacteria; Synergy with 2,6-DAC (in words) [4]: synergistic activity; MIC, antibiotic in combination [4]: 2 µg/mL
CC1(C)S[C@@H]2[C@H](NC(=O)[C@H](N)c3ccc(O)cc3)C(=O)N2[C@H]1C(=O)O [Amoxicillin] |  | > 128 µg/mL |  | 128 µg/mL | 16 µg/mL | 
CC1(C)S[C@@H]2[C@H](NC(=O)[C@H](N)c3ccccc3)C(=O)N2[C@H]1C(=O)O [Ampicillin] | 4 µg/mL |  |  |  |  | MIC, antibiotic in combination [5]: 2 µg/mL
CC[C@H]1OC(=O)[C@H](C)[C@@H](O[C@H]2C[C@@](C)(OC)[C@@H](O)[C@H](C)O2)[C@H](C)[C@@H](O[C@@H]2O[C@H](C)C[C@H](N(C)C)[C@H]2O)[C@](C)(O)C[C@@H](C)CN(C)[C@H](C)[C@@H](O)[C@]1(C)O [Azithromycin] |  | 128 µg/mL |  | 64 µg/mL | 1 µg/mL | 
CC1(C)S[C@@H]2[C@H](NC(=O)C(C(=O)O)c3ccccc3)C(=O)N2[C@H]1C(=O)O (stereo partly shown) [Carbenicillin] | 8 µg/mL |  |  |  |  | MIC, antibiotic in combination [5]: 2 µg/mL
CO[C@@]1(NC(=O)Cc2cccs2)C(=O)N2C(C(=O)O)=C(COC(N)=O)CS[C@@H]21 [Cefoxitin] |  | > 128 µg/mL |  | 128 µg/mL | 8 µg/mL | 
CC(C)(O/N=C(\C(=O)N[C@@H]1C(=O)N2C(C(=O)[O-])=C(C[n+]3ccccc3)CS[C@H]12)c1csc(N)n1)C(=O)O [Ceftazidime] | 16 µg/mL | > 128 µg/mL | no synergy | 128 µg/mL | 2 µg/mL | 
CO/N=C(\C(=O)N[C@@H]1C(=O)N2C(C(=O)O)=C(CSc3nc(=O)c(=O)[nH]n3C)CS[C@H]12)c1csc(N)n1 [Ceftriaxone] | 16 µg/mL | > 128 µg/mL | no synergy | 128 µg/mL | 2 µg/mL | 
CC(=O)OCC1=C(C(=O)O)N2C(=O)[C@@H](NC(=O)Cc3cccs3)[C@H]2SC1 [Cephalothins] |  |  |  | 128 µg/mL | 2 µg/mL | MIC of antibiotic without 2,6-DAC [2]: >128 µg/mL
O=C(N[C@H](CO)[C@H](O)c1ccc([N+](=O)[O-])cc1)C(Cl)Cl [Chloramphenicol] | 4 µg/mL |  | no synergy |  |  | 
O=C(O)c1cn(C2CC2)c2cc(N3CCNCC3)c(F)cc2c1=O [Ciprofloxacin] | 8 µg/mL |  | no synergy |  |  | 
C[C@@H](O)[C@H]1C(=O)N2C(C(=O)O)=C(S[C@@H]3CN[C@H](CNS(N)(=O)=O)C3)[C@H](C)[C@H]12 [Doripenem] |  | 32 µg/mL |  | 4 µg/mL | ≤2 µg/mL | 
C[C@@H](O)[C@H]1C(=O)N2C(C(=O)O)=C(S[C@@H]3CN[C@H](C(=O)Nc4cccc(C(=O)O)c4)C3)[C@H](C)[C@H]12 [Ertapenem] |  | > 128 µg/mL |  | 4 µg/mL | 2 µg/mL | 
CC[C@H]1OC(=O)[C@H](C)[C@@H](O[C@H]2C[C@@](C)(OC)[C@@H](O)[C@H](C)O2)[C@H](C)[C@@H](O[C@@H]2O[C@H](C)C[C@H](N(C)C)[C@H]2O)[C@](C)(O)C[C@@H](C)C(=O)[C@H](C)[C@@H](O)[C@]1(C)O [Erythromycin] |  | > 128 µg/mL |  | 64 µg/mL | 4 µg/mL | 
C[C@@H](O)[C@H]1C(=O)N2C(C(=O)O)=C(SCCN=CN)C[C@H]12 [Imipenem] |  | 64 µg/mL |  | 8 µg/mL | 1 µg/mL | 
C[C@H]1COc2c(N3CCN(C)CC3)c(F)cc3c(=O)c(C(=O)O)cn1c23 [Levofloxacin] |  | 4 µg/mL |  | 2 µg/mL | ≤1 µg/mL | 
C[C@@H](O)[C@H]1C(=O)N2C(C(=O)O)=C(S[C@@H]3CN[C@H](C(=O)N(C)C)C3)[C@H](C)[C@H]12 [Meropenem] | 1 µg/mL | 64 µg/mL |  | 4 µg/mL | 1 µg/mL | MIC, antibiotic in combination [5]: 0.5 µg/mL
CO[C@@H]1[C@@H](OC(N)=O)[C@@H](O)[C@H](Oc2ccc3c(O)c(NC(=O)c4ccc(O)c(CC=C(C)C)c4)c(=O)oc3c2C)OC1(C)C [Novobiocin] | 0.125 µg/mL | 8 µg/mL |  |  |  | Bacteria killing, combination with 2,6-DAC ([3]; 2,6-DAC 0.25×MIC + novobiocin 0.125 to 0.25×MIC): 4 log10; Killing of bacteria by single agent (in words) [3]: no killing of bacteria; Synergy with 2,6-DAC (in words) [4]: synergistic activity; MIC, antibiotic in combination [4]: 0.5 µg/mL; MIC, antibiotic in combination [5]: 0.03125 µg/mL; Histology of liver, spleen and kidney, combination treatment (in words) ([6]; 2,6-DAC + novobiocin, H&E): significantly alleviated these tissue abnormalities; Histology of liver, spleen and kidney, individual treatment (in words) ([6]; alone, H&E, vs infection control): did not improve the tissue appearance; Efficacy of single agent in intraperitoneal fluid and distal organs (in words) ([6]; alone: 2,6-DAC 25 mg/kg or novobiocin 10 mg/kg, i.p., 18 h): ineffective
CC1COc2c(N3CCN(C)CC3)c(F)cc3c(=O)c(C(=O)O)cn1c23 (stereo not shown) [Ofloxacin] |  | 8 µg/mL |  | 8 µg/mL | 4 µg/mL | 
CCN1CCN(C(=O)N[C@@H](C(=O)N[C@@H]2C(=O)N3[C@@H]2SC(C)(C)[C@@H]3C(=O)O)c2ccccc2)C(=O)C1=O [Piperacillin] | 4 µg/mL |  | no synergy |  |  | 
C[C@]1(Cn2ccnn2)[C@H](C(=O)O)N2C(=O)C[C@H]2S1(=O)=O [Tazobactam] |  | 64 µg/mL |  |  |  | Bactericidal efficacy, combination with 2,6-DAC ([3]; 2,6-DAC 0.5×MIC + tazobactam 0.06×MIC): 4 log10; Killing of bacteria by single agent (in words) [3]: no killing of bacteria; Synergy with 2,6-DAC (in words) [4]: synergistic activity; MIC, antibiotic in combination [4]: 16 µg/mL
NC[C@H]1O[C@H](O[C@H]2[C@H](O)[C@@H](O[C@H]3O[C@H](CO)[C@@H](O)[C@H](N)[C@H]3O)[C@H](N)C[C@@H]2N)[C@H](N)C[C@@H]1O [Tobramycin] | 1 µg/mL | > 128 µg/mL |  |  |  | MIC of antibiotic without 2,6-DAC [2]: >128 µg/mL; Reduction, combination with 2,6-DAC ([3]; 2,6-DAC 0.5×MIC + tobramycin 0.002×MIC): 2 log10; Killing of bacteria by single agent (in words) [3]: no killing of bacteria; Synergy with 2,6-DAC (in words) [4]: synergistic activity; MIC, antibiotic in combination [4]: 2 µg/mL; MIC, antibiotic in combination [5]: 0.25 µg/mL
COc1cc(Cc2cnc(N)nc2N)cc(OC)c1OC [Trimethoprim] |  |  | no synergy |  |  | 
Colistin |  |  | no synergy |  |  | MIC of antibiotic alone / without 2,6-DAC [1]: 50 µg/mL
Polymyxin B |  |  | no synergy |  |  | MIC of antibiotic alone / without 2,6-DAC [1]: 32 µg/mL
Ramoplanin |  |  |  | 128 µg/mL | 2 µg/mL | MIC of antibiotic without 2,6-DAC [2]: >128 µg/mL

— patent publication US12624127B2, “Chitosan derivatives as antimicrobials and synergistic combinations thereof” (priority 2022, dated 2026)
